experiment: recombinant barcode read abundance after kanamycin selection (control-corrected) (log10(CPM+1)); higher = more efficient recombination; sequences stand for … in AGTGCAGAGAAAATCGGCCAGTTTTCTCTGCCTGCAGTCCGCATGCCGT…AGATTTATGCAGCGGACTGCCTTTCTCCCAAAGTGATAAACCGGACAGTATCATGGACCGGTTTTCCCGGTAATCCGTATTTGCAAGGTTGGTTTCACT; site = the 11-nt target
Method in brief: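 Targets were screened in pooled form in E. coli against IS621 bridge RNA target-binding loops. Recombination efficiency is based on barcode counts at recombinant junctions in counts per million, averaged and corrected for the control. Numbers are shown as log10(CPM+1), with duplicate plates on chloramphenicol/ampicillin LB agar (control) or chloramphenicol/ampicillin/kanamycin with 0.1 mM IPTG.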
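Note: IS621 recombinase and bridge RNA in Escherichia coli cells.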

| Sequence | recombinant barcode read abundance (log10) |
| --- | --- |
| CCAGAGTCTTGGGTTCTAACCTGTTGCCG (site CCAGAGTCTCG) | 0.288 |
| CCAGAGTCTTGGGTTCTAACCTGTTGCCG (site CCAGAGTCTTG) | 0.152 |
| CCAGATTCTTGGGTTCTAACCTGTTGCCT (site CAAGATTCTAG) | 0.154 |
| CCAGATTCTTGGGTTCTAACCTGTTGCCT (site CCAGATTCTAG) | 0.206 |
| CCAGATTCTTGGGTTCTAACCTGTTGCCT (site CGAGATTCTAG) | 0.297 |
| CCAGATTCTTGGGTTCTAACCTGTTGCCT (site CTAGATTCTAG) | 0.144 |
| CCAGTAGCTTGGGTTCTAACCTGTTGCGG (site CCAGAAGCTAC) | 0.0355 |
| CCAGTAGCTTGGGTTCTAACCTGTTGCGG (site CCAGTAGCTCC) | 1.01 |
| CCAGTATCTTGGGTTCTAACCTGTTGCAT (site CCAGTATCTAT) | 0.796 |
| CCAGTATCTTGGGTTCTAACCTGTTGCAT (site TAGCGGCCTCC) | 0.0866 |
| CCATAGGCTTGGGTTCTAACCTGTTGCTG (site CCATAGGCTCA) | 0.732 |
| CCATAGGCTTGGGTTCTAACCTGTTGCTG (site GAGAGAACTAG) | 0.0117 |
| CCATATGCTTGGGTTCTAACCTGTTGCCT (site AACACGACTGA) | 0.0524 |
| CCATATGCTTGGGTTCTAACCTGTTGCCT (site CCATATGCTAG) | 0.148 |
| CCATTCCCTTGGGTTCTAACCTGTTGCTA (site CCATTCCCTTA) | 0.43 |
| CCATTCCCTTGGGTTCTAACCTGTTGCTA (site TTGACGGCTAG) | 0.0589 |
| CCATTGTCTTGGGTTCTAACCTGTTGCCG (site CCATTGTCTCG) | 0.124 |
| CCATTGTCTTGGGTTCTAACCTGTTGCCG (site GTTAGAACTAA) | 0.128 |
| CCGAATTCTTGGGTTCTAACCTGTTGCTT (site CCGAATTCTAA) | 0.113 |
| CCGAATTCTTGGGTTCTAACCTGTTGCTT (site TACCCACCTCT) | 0.00604 |
| CCGAGTCCTTGGGTTCTAACCTGTTGCCT (site CCGAATCCTAG) | 0.328 |
| CCGAGTCCTTGGGTTCTAACCTGTTGCCT (site CCGACTCCTAG) | 0.303 |
| CCGAGTCCTTGGGTTCTAACCTGTTGCCT (site CCGAGTCCTAG) | 0.246 |
| CCGAGTCCTTGGGTTCTAACCTGTTGCCT (site CCGATTCCTAG) | 1.2 |
| CCGATATCTTGGGTTCTAACCTGTTGCCT (site CCGATATCTAG) | 0.287 |
| CCGATATCTTGGGTTCTAACCTGTTGCCT (site CCGCTATCTAG) | 0.707 |

| Sequence | recombinant barcode read abundance (log10) |
| --- | --- |
| CCGATATCTTGGGTTCTAACCTGTTGCCT (site CCGGTATCTAG) | 1.97 |
| CCGATATCTTGGGTTCTAACCTGTTGCCT (site CCGTTATCTAG) | 0.567 |
| CCGCAGACTTGGGTTCTAACCTGTTGCCA (site CCGCAGACTTG) | 0.0394 |
| CCGCAGACTTGGGTTCTAACCTGTTGCCA (site TCGCAGACTAG) | 0.0447 |
| CCGCATACTTGGGTTCTAACCTGTTGCCT (site CAGCATACTAG) | 0.0752 |
| CCGCATACTTGGGTTCTAACCTGTTGCCT (site CCGCATACTAG) | 0.277 |
| CCGCATACTTGGGTTCTAACCTGTTGCCT (site CGGCATACTAG) | 0.0516 |
| CCGCATACTTGGGTTCTAACCTGTTGCCT (site CTGCATACTAG) | 0.559 |
| CCGCCGGCTTGGGTTCTAACCTGTTGCCT (site CCGCCAGCTAG) | 0 |
| CCGCCGGCTTGGGTTCTAACCTGTTGCCT (site CCGCCCGCTAG) | 0.222 |
| CCGCCGGCTTGGGTTCTAACCTGTTGCCT (site CCGCCGGCTAG) | 0.146 |
| CCGCCGGCTTGGGTTCTAACCTGTTGCCT (site CCGCCTGCTAG) | 0.0797 |
| CCGCCTGCTTGGGTTCTAACCTGTTGCCT (site CCGCCAGCTAG) | 0.293 |
| CCGCCTGCTTGGGTTCTAACCTGTTGCCT (site CCGCCCGCTAG) | 0.198 |
| CCGCCTGCTTGGGTTCTAACCTGTTGCCT (site CCGCCGGCTAG) | 0.24 |
| CCGCCTGCTTGGGTTCTAACCTGTTGCCT (site CCGCCTGCTAG) | 0.0789 |
| CCGCGTCCTTGGGTTCTAACCTGTTGCTA (site CCGCCTCCTTC) | 0.128 |
| CCGCGTCCTTGGGTTCTAACCTGTTGCTA (site CCGCGTCCTTA) | 0.111 |
| CCGCTATCTTGGGTTCTAACCTGTTGCCT (site CCGATATCTAG) | 0.199 |
| CCGCTATCTTGGGTTCTAACCTGTTGCCT (site CCGCTATCTAG) | 0.379 |
| CCGCTATCTTGGGTTCTAACCTGTTGCCT (site CCGGTATCTAG) | 0.104 |
| CCGCTATCTTGGGTTCTAACCTGTTGCCT (site CCGTTATCTAG) | 0.0555 |
| CCGCTCGCTTGGGTTCTAACCTGTTGCCT (site CCGCTCGCTAG) | 0.146 |
| CCGCTCGCTTGGGTTCTAACCTGTTGCCT (site CCGCTTACTAG) | 0.117 |
| CCGTCGTCTTGGGTTCTAACCTGTTGCCT (site CCGTCATCTAG) | 0.0517 |
| CCGTCGTCTTGGGTTCTAACCTGTTGCCT (site CCGTCGTCTAG) | 0.255 |

| Sequence | recombinant barcode read abundance (log10) |
| --- | --- |
| CCGTCTACTTGGGTTCTAACCTGTTGCCA (site CCGTCTACTTG) | 0.121 |
| CCGTCTACTTGGGTTCTAACCTGTTGCCA (site TAACTGTCTAA) | 0.164 |
| CCGTCTACTTGGGTTCTAACCTGTTGCTC (site CCGTCTACTAA) | 0.0412 |
| CCGTCTACTTGGGTTCTAACCTGTTGCTC (site CCGTCTACTCA) | 0.209 |
| CCGTCTACTTGGGTTCTAACCTGTTGCTC (site CCGTCTACTGA) | 0.0724 |
| CCGTCTACTTGGGTTCTAACCTGTTGCTC (site CCGTCTACTTA) | 0.0131 |
| CCGTTGTCTTGGGTTCTAACCTGTTGCTA (site CCGTTGTCTTA) | 0.48 |
| CCGTTGTCTTGGGTTCTAACCTGTTGCTA (site GGTCGTACTAG) | 0.0443 |
| CCTAAGTCTTGGGTTCTAACCTGTTGCCA (site CCTAAGTCTTG) | 0.11 |
| CCTAAGTCTTGGGTTCTAACCTGTTGCCA (site GACTTAACTAA) | 0.133 |
| CCTAGAACTTGGGTTCTAACCTGTTGCCT (site CCTAGAACTAG) | 0.134 |
| CCTAGAACTTGGGTTCTAACCTGTTGCCT (site CCTAGACCTAG) | 0.0135 |
| CCTAGAACTTGGGTTCTAACCTGTTGCCT (site CCTAGAGCTAG) | 0.126 |
| CCTAGAACTTGGGTTCTAACCTGTTGCCT (site CCTAGATCTAG) | 0.0929 |
| CCTCATACTTGGGTTCTAACCTGTTGCCA (site CCTCATACTTG) | 0.179 |
| CCTCATACTTGGGTTCTAACCTGTTGCCA (site GGAGTACCTAT) | 0.02 |
| CCTCCCTCTTGGGTTCTAACCTGTTGCTG (site CCTCCCTCTCA) | 2.49 |
| CCTCCCTCTTGGGTTCTAACCTGTTGCTG (site CCTCCCTCTTA) | 0.036 |
| CCTCGATCTTGGGTTCTAACCTGTTGCAT (site CCTCGATCTAT) | 1.59 |
| CCTCGATCTTGGGTTCTAACCTGTTGCAT (site TCTCGATCTAT) | 0.185 |
| CCTCGGCCTTGGGTTCTAACCTGTTGCAT (site CCACGGCCTAT) | 0.0708 |
| CCTCGGCCTTGGGTTCTAACCTGTTGCAT (site CCTCGGCCTAT) | 0.862 |
| CCTCGTCCTTGGGTTCTAACCTGTTGCCC (site CCTCGTCCTGG) | 0.175 |
| CCTCGTCCTTGGGTTCTAACCTGTTGCCC (site TAGGACTCTAT) | 0.00798 |
| CCTCTGCCTTGGGTTCTAACCTGTTGCCT (site CCTCTGCCTAG) | 0.855 |
